{
  "source": "patent US12083084B2",
  "about": "“Method for enhancing energy production and metabolism in cells” (REPLICON HEALTH OY, priority 2013, dated 2024)",
  "key": {"[1]": {"experiment": "4.5 day acute test, wide blood panel (Example 2.3.1)", "type": "in vivo, human", "conditions": "for increased level of blood triglycerides: 4.5 day test", "experimental": "In earlier in vivo experiments (Example 2.1 and 2.2) the last DGAcs was taken in previous night. In this Example the last dose was double in size (=some 10 mg/kg), and it was taken in the same morning as the collection of blood samples. Higher than “normal” therapeutic dose and short time to blood measurement was chosen in order to see a clearer dose response compared to zero control. On top of very wide blood panel, like in Examples 2.1 and 2.2, also gene expression analyses from peripheral leukocytes (Example 2.3.2 below), and concentration analyses from collected plasma samples (Example 2.3.3) was conducted. Also glucose tolerance test and related insulin measurements (Example 2.3.4 below) was conducted. By comparing results of subject 1 (S1) from Example 2.1 and in Example 2.3.1 (below), it is fairly straightforward to see that this “high dose and immediate response strategy” was efficient, and it produced even very important deviations in some parameters due to different administrations.\nIn this Example the 4 day experiment in Example 2.1 was extended into 4.5 day experiment by additional DGAcs dose in the morning before blood measurement. Same wide fasting blood panel consisting of 25 different metrics and full blood count was measured for all participants (sample analytics by United Medix Laboratories, Finland).\nTwo healthy volunteers (S1 and S9) and two (otherwise healthy) volunteers using statin medication (S10 and S11) were chosen for the experiment. The test set up was double blinded. S1 had participated in the earlier 4 day experiment (see Table 3 above and also to a 3 week pilot testing) and served as an important positive control on the efficacy of the DGAcs. Statin group on the other hand was chosen as some kind of a negative control because statins to some extend can possibly counter act the positive effects of the DGAcs and on the other hand also have similar health effects. Statins suppress mevalonate pathway by inhibiting HMG Coa reductase activity and also disturb balancing of cellular NADPH/NADP^+ levels (FIGS. 3b and 4). […] Statin treatment group was not expected to yield positive results but possibly vice versa. For S10 the statin dose was halved two weeks before the test from 20 mg to 10 mg (Simvastatin). For S11 statin treatment was kept at 20 mg per day (also Simvastatin)."}, "[2]": {"conditions": "rats, given with ethanol; cited from earlier work"}, "[3]": {"conditions": "4.5 day, 5 mg/kg twice a day, last dose 10 mg/kg, 2.5 hours after last dose, healthy males S1 and S9, fasting blood, vs 0-control"}},
  "note": "Several values for one entry are separate records, joined by “and”; a condition that tells them apart may be missing. Equal entries are not always repeated.",
  "data": [
    {"smiles": "O.O.O=C([O-])[C@H](O)CO.O=C([O-])[C@H](O)CO.[Ca+2]", "note": "[DGAcs, D-glyceric acid, calcium salt dehydrate]", "values": [
      {"measurement": "HDL, 4.5 day change", "setting": "[1]; [3]", "result": "1% and −1%"},
      {"measurement": "S-Afos, 4.5 day change", "setting": "[1]; [3]", "result": "8% and 12%"},
      {"measurement": "S-Alb, 4.5 day change", "setting": "[1]; [3]", "result": "5% and 10%"},
      {"measurement": "S-Amyl, 4.5 day change", "setting": "[1]; [3]", "result": "−5% and −3%"},
      {"measurement": "S-Cal, 4.5 day change", "setting": "[1]; [3]", "result": "4% and 3%"},
      {"measurement": "S-LDH, 4.5 day change", "setting": "[1]; [3]", "result": "−4% and −7%"},
      {"measurement": "S-Mg, 4.5 day change", "setting": "[1]; [3]", "result": "5% and 0%"},
      {"measurement": "S-Na, 4.5 day change", "setting": "[1]; [3]", "result": 1, "unit": "%"},
      {"measurement": "S-Uraat, 4.5 day change", "setting": "[1]; [3]", "result": "4% and −1%"},
      {"measurement": "fS-Gluk, 4.5 day change", "setting": "[1]; [3]", "result": "−2% and 4%"},
      {"measurement": "fS-Krea, 4.5 day change", "setting": "[1]; [3]", "result": "3% and 9%"},
      {"measurement": "fS-Transf, 4.5 day change", "setting": "[1]; [3]", "result": "5% and 8%"},
      {"measurement": "fS-Trigly, 4.5 day change", "setting": "[1]; [3]", "result": "−3% and −5%"},
      {"measurement": "blood LDH declined", "setting": "[1]; S1, 4.5 day test", "result": 4, "unit": "%"},
      {"measurement": "blood urea decline", "setting": "[1]; S1, 4.5 day test", "result": 7, "unit": "%"},
      {"measurement": "creatine kinase (S-CK) declined", "setting": "[1]; S1, 4.5 day test", "result": 14, "unit": "%"},
      {"measurement": "AST/ALT (ratio) after treatment", "setting": "[1]; S1, 4.5 day test (zero control 1.32)", "result": 0.96},
      {"measurement": "increased level of blood triglycerides", "setting": "[1]; S10, statin group (Simvastatin 10 mg)", "result": "+83.5%"},
      {"measurement": "increased level of blood triglycerides", "setting": "[1]; S11, statin group (Simvastatin 20 mg)", "result": "+25.6%"},
      {"measurement": "metabolism of alcohol", "setting": "[2]", "result": "expedited the metabolism of alcohol"}
    ]}
  ]
}
